Results: patent US8598204B2, “1,2-dihydro-2-oxoquinoline compounds as 5-HT4 receptor ligands” (Suven Life Sciences Limited, priority 2009, dated 2013)
Structures can show the parent of a compound that is named as a salt.

Each compound was assayed on novel object recognition (cognition) in rats (assay: Object recognition task model). Details: 1 mg/kg p.o.
Format: in vivo, rat
Description: The cognition-enhancing properties of compounds of this invention were estimated using a model of animal cognition: the object recognition task model.
Male Wister rats (230-280 grams) obtained from N. I. N. (National Institute of Nutrition, Hyderabad, India) was used as experimental animals. Four animals were housed in each cage. Animals were kept on 20% food deprivation before one day and given water ad libitum throughout the experiment and maintained on a 12 hours light/dark cycle. Also the rats were habituated to individual arenas for 1 hour in the absence of any objects.
One group of 12 rats received vehicle (1 mL/Kg) orally and another set of animals received compound of the formula (I) either orally or i.p., before one hour of the familiar (T1) and choice trial (T2).
The experiment was carried out in a 50×50×50 cm open field made up of acrylic. In the familiarization phase (T1), the rats were placed individually in the open field for 3 minutes, in which two identical objects (plastic bottles, 12.5 cm height×5.5 cm diameter) covered in yellow masking tape alone (a1 and a2) were positioned in two adjacent corners, 10 cm. from the walls. After 24 hours of the (T1) trial for long-term memory test, the same rats were placed in the same arena as they were placed in (T1) trial. Choice phase (T2) rats were allowed to explore the open field for 3 minutes in presence of one familiar object (a3) and one novel object (b) (Amber color glass bottle, 12 cm high and 5 cm in diameter). Familiar objects presented similar textures, colors and sizes. During the T1 and T2 trial, explorations of each object (defined as sniffing, licking, chewing or having moving vibrissae whilst directing the nose towards the object at a distance of less than 1 cm) were recorded separately by stopwatch. Sitting on an object was not regarded as exploratory activity, however, it was rarely observed.
T1 is the total time spent exploring the familiar objects (a 1+a2).
T2 is the total time spent exploring the familiar object and novel object (a3+b).
The object recognition test was performed as described by Ennaceur, A., Delacour, J., 1988, A new one-trial test for neurobiological studies of memory in rats—Behavioural data, Behav. Brain Res., 31, 47-59.

| Compound | Inference |
| --- | --- |
| CCN1C2CC3CC1CC(CNC(=O)c1c(O)c4ccccc4n(C(C)C)c1=O)(C3)C2.Cl [Example 19, N-(2-Ethyl-2-azatricyclo[3.3.1.1^3,7]dec-5-ylmethyl)-4-hydroxy-1-isopropyl-2-oxo-1,2-dihydroquinoline-3-carboxamide hydrochloride] | Active |

Same assay, conditions: 1 mg/kg p.o., choice trial T2 24 hours after T1

| Compound | Exploration time mean ± S.E.M, Familiar object | Exploration time mean ± S.E.M, Novel object |
| --- | --- | --- |
| CCN1C2CC3CC1CC(CNC(=O)c1c(O)c4ccccc4n(C(C)C)c1=O)(C3)C2.Cl [Example 19, N-(2-Ethyl-2-azatricyclo[3.3.1.1^3,7]dec-5-ylmethyl)-4-hydroxy-1-isopropyl-2-oxo-1,2-dihydroquinoline-3-carboxamide hydrochloride] | 8.83 ± 1.54 s | 14.09 ± 1.56 s |

What follows are compounds tested against T1, recombinant human 5-HT4 receptor (Homo sapiens, UniProt Q13639) (assay: Determination of EC50 values for 5-HT4 receptor (CRE-luciferase reporter, CHO cells)). Details: stable CHO cell line expressing recombinant human 5-HT4 receptor and pCRE-Luc reporter; 4 hours incubation; luciferase activity.
T1 construct: expressed in transfected cells
Format: cell-based
Description: A stable CHO cell line expressing recombinant human 5-HT4 receptor and pCRE-Luc reporter system was used for cell-based assay. The assay offers a non-radioactive based approach to determine binding of a compound to GPCRs. In this specific assay, the level of intracellular cyclic AMP which is modulated by activation or inhibition of the receptor is measured. The recombinant cells harbor luciferase reporter gene under the control of cAMP response element.
The above cells were grown in 96 well clear bottom white plates in Hams F12 medium containing 10% fetal bovine serum (FBS). Prior to the addition of compounds or standard agonist, cells were serum starved overnight. Increasing concentrations of test compounds were added in OptiMEM medium to the cells. The incubation was continued at 37° C. in CO2 incubator for 4 hours. Medium was removed and cells were washed with phosphate buffered saline. The cells were lysed and luciferase activity was measured in a Luminometer. Luminescence units were plotted against the compound concentrations using Graphpad software. EC50 values of the compounds were defined as the concentration required in stimulating the luciferase activity by 50%.

T1 sequence (Q13639 whole entry): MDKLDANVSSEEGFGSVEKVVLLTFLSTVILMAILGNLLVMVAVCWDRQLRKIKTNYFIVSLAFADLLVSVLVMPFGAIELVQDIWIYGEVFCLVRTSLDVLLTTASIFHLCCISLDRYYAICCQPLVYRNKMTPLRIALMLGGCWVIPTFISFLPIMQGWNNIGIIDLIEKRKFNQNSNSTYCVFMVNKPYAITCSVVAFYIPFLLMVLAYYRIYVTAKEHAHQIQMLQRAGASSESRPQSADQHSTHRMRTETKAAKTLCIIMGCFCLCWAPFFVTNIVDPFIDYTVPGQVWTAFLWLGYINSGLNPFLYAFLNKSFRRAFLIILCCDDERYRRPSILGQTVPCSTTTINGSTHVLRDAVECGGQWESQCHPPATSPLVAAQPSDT

| Compound | EC50 |
| --- | --- |
| CC(C)n1c(=O)c(C(=O)NC2CCN(C3C4CC5CC(C4)CC3C5)C2)c(O)c2ccccc21 (stereo not drawn) [Example 3, N-[1-(Tricyclo[3.3.1.1^3,7]dec-2-yl)pyrrolidin-3-yl]-4-hydroxy-1-isopropyl-2-oxo-1,2-dihydroquinoline-3-carboxamide] | 1110 nM |
| CC(C)N1C2CC3CC1CC(NC(=O)c1c(O)c4ccccc4n(C(C)C)c1=O)(C3)C2 [Example 15, N-(2-Isopropyl-2-azatricyclo[3.3.1.1^3,7]dec-5-yl)-4-hydroxy-1-isopropyl-2-oxo-1,2-dihydro-quinoline-3-carboxamide] | 2730 nM |
| CC(C)n1c(=O)c(C(=O)NC2C3CCN(CC3)C2Cc2cccnc2)c(O)c2ccccc21 (stereo not drawn) [Example 12, N-[2-(Pyridin-3-ylmethyl)-1-azabicyclo[2.2.2]oct-3-yl]-4-hydroxy-1-isopropyl-2-oxo-1,2-dihydroquinoline-3-carboxamide] | 972 nM |
| CC(C)Cn1c(=O)c(C(=O)NCCCN2C3CC4CC(C3)CC2C4)c(O)c2ccccc21 [Example 2, N-[(2-Azatricyclo[3.3.1.1^3,7]dec-2-yl)propyl]-4-hydroxy-1-isobutyl-2-oxo-1,2-dihydroquinoline-3-carboxamide hydrochloride] | 4020 nM |
| CC(C)n1c(=O)c(C(=O)NCCCN2C3CC4CC(C3)CC2C4)c(O)c2cc(Br)ccc21 [Example 10, N-[(2-Azatricyclo[3.3.1.1^3,7]dec-2-yl)propyl]-6-bromo-4-hydroxy-1-isopropyl-2-oxo-1,2-dihydroquinoline-3-carboxamide] | 2800 nM |
| CC(C)n1c(=O)c(C(=O)NCCCN2C3CC4CC(C3)CC2C4)c(O)c2cc(N)ccc21 [Example 11, N-[(2-Azatricyclo[3.3.1.1^3,7]dec-2-yl)propyl]-6-amino-4-hydroxy-1-isopropyl-2-oxo-1,2-dihydroquinoline-3-carboxamide] | 3000 nM |
| CC(C)n1c(=O)c(C(=O)NCCCN2C3CC4CC2CC(c2ccccc2)(C4)C3)c(O)c2ccccc21 [Example 5, N-[(5-Phenyl-2-azatricyclo[3.3.1.1^3,7]dec-2-yl)propyl]-4-hydroxy-1-isopropyl-2-oxo-1,2-dihydroquinoline-3-carboxamide hydrochloride] | 1600 nM |
| CC(C)n1c(=O)c(C(=O)NCCN2C3CC4CC(C3)CC2C4)c(O)c2ccccc21 [Example 17, N-[(2-Azatricyclo[3.3.1.1^3,7]dec-2-yl)ethyl]-4-hydroxy-1-isopropyl-2-oxo-1,2-dihydroquinoline-3-carboxamide hydrochloride] | 1150 nM |
| CC(C)n1c(=O)c(C(=O)NC2C3CCN(CC3)C2Cc2ccccc2)c(O)c2ccccc21 (stereo not drawn) [Example 16, N-(2-Benzyl-1-azabicyclo[2.2.2]oct-3-yl)-4-hydroxy-1-isopropyl-2-oxo-1,2-dihydroquinoline-3-carboxamide] | 3920 nM |
| CC(C)n1c(=O)c(C(=O)NC2C3CCN(CC3)C2Cc2ccccn2)c(O)c2ccccc21 (stereo not drawn) [Example 13, N-[2-(Pyridin-2-ylmethyl)-1-azabicyclo[2.2.2]oct-3-yl]-4-hydroxy-1-isopropyl-2-oxo-1,2-dihydroquinoline-3-carboxamide] | 462 nM |
| CC(C)n1c(=O)c(C(=O)NCCCN2C3CC4CC(C3)CC2C4)c(O)c2cc(Cl)ccc21 [Example 8, N-[(2-Azatricyclo[3.3.1.1^3,7]dec-2-yl)propyl]-6-chloro-4-hydroxy-1-isopropyl-2-oxo-1,2-dihydroquinoline-3-carboxamide] | 3080 nM |

The remaining compounds from weak to strong by EC50, led by results:

| EC50 | Compound |
| --- | --- |
| 1000 nM | N-[(2-Azatricyclo[3.3.1.1^3,7]dec-2-yl) propyl]-4-hydroxy-1-isobutyl-6-methoxy-2-oxo-1,2-dihydroquinoline-3-carboxamide [Example 7] |
| 958 nM | CCCCN1C2CC3CC1CC(NC(=O)c1c(O)c4ccccc4n(C(C)C)c1=O)(C3)C2 [Example 18, N-(2-Butyl-2-azatricyclo[3.3.1.1^3,7]dec-5-yl)-4-hydroxy-1-isopropyl-2-oxo-1,2-dihydroquinoline-3-carboxamide hydrochloride] |
| 935 nM | CC(C)n1c(=O)c(C(=O)NCCCN2C3CC4CC(C3)CC2C4)c(O)c2cc(F)ccc21 [Example 9, N-[(2-Azatricyclo[3.3.1.1^3,7]dec-2-yl)propyl]-6-fluoro-4-hydroxy-1-isopropyl-2-oxo-1,2-dihydroquinoline-3-carboxamide] |
| 667 nM | CC(C)n1c(=O)c(C(=O)NCCCN2CC3CC4CC2CN(C4)C3)c(O)c2ccccc21 (stereo not drawn) [Example 6, N-[(1,4-Diazatricyclo[4.3.1.1^3,8]undec-4-yl)propyl]-4-hydroxy-1-isopropyl-2-oxo-1,2-dihydro-quinoline-3-carboxamide] |
| 645 nM | CCN1C2CC3CC1CC(CNC(=O)c1c(O)c4ccccc4n(C(C)C)c1=O)(C3)C2.Cl [Example 19, N-(2-Ethyl-2-azatricyclo[3.3.1.1^3,7]dec-5-ylmethyl)-4-hydroxy-1-isopropyl-2-oxo-1,2-dihydroquinoline-3-carboxamide hydrochloride] |
| 476 nM | CC(C)n1c(=O)c(C(=O)NC23CC4CC2CC(N2CCCC2)(C4)C3)c(O)c2ccccc21 (stereo not drawn) [Example 21] |
| 77 nM | CCCCN1CCC(NC(=O)c2c(O)c3ccccc3n(C(C)C)c2=O)CC1 [Example 20, N-(1-Butylpiperidin-4-yl)-4-hydroxy-1-isopropyl-2-oxo-1,2-dihydroquinoline-3-carboxamide hydrochloride] |
